How the values were obtained:
Assay type in all cases: functional
Scheffersomyces stipitis [1] = experiment: Z-7-decen-5-olide Isolated at 24 hours incubation of compound in Pichia stipitis
Kodamaea ohmeri [2] = experiment: Z-7-decen-5-olide Isolated at 24 hours incubation of compound in Pichia ohmeri
Kodamaea ohmeri [3] = experiment: Hexane-4-olide Isolated at 24 hours incubation of compound in Pichia ohmeri
Scheffersomyces stipitis [4] = experiment: 5-octen-4-olide Isolated at 24 hours incubation of compound in Pichia stipitis
Scheffersomyces stipitis [5] = experiment: Hexane-4-olide Isolated at 24 hours incubation of compound in Pichia stipitis
Scheffersomyces stipitis [6] = experiment: E-5-decen-4-olide Isolated at 24 hours incubation of compound in Pichia stipitis
Scheffersomyces stipitis [7] = experiment: E-5,Z-7-dodien-4-olide Isolated at 24 hours incubation of compound in Pichia stipitis
Kodamaea ohmeri [8] = experiment: Decan-4-olide Isolated at 24 hours incubation of compound in Pichia ohmeri
Kodamaea ohmeri [9] = experiment: E-5-decen-4-olide Isolated at 24 hours incubation of compound in Pichia ohmeri
Kodamaea ohmeri [10] = experiment: E-5,Z-7-dodien-4-olide solated at 24 hours incubation of compound in Pichia ohmeri
Scheffersomyces stipitis [11] = experiment: Z-6-dodecen-4-olide Isolated at 24 hours incubation of compound in Pichia stipitis
Kodamaea ohmeri [12] = experiment: dodecan-4-olide Isolated at 24 hours incubation of compound in Pichia ohmeri
Kodamaea ohmeri [13] = experiment: Z-6-dodecen-4-olide Isolated at 24 hours incubation of compound in Pichia ohmeri
Scheffersomyces stipitis [14] = experiment: Z-6, Z-9-dodecadien-4-olide Isolated at 24 hours incubation of compound in Pichia stipitis
Scheffersomyces stipitis [15] = experiment: dodecan-4-olide Isolated at 24 hours incubation of compound in Pichia stipitis
Scheffersomyces stipitis [16] = experiment: 5-tetradecen-4-olide Isolated at 24 hours incubation of compound in Pichia stipitis
Kodamaea ohmeri [17] = experiment: Z-6, Z-9-dodecadien-4-olide Isolated at 24 hours incubation of compound in Pichia ohmeri
Kodamaea ohmeri [18] = experiment: […] Isolated at 24 hours incubation of compound in Pichia ohmeri
Scheffersomyces stipitis [19] = experiment: […] Isolated at 24 hours incubation of compound in Pichia stipitis
Scheffersomyces stipitis [20] = experiment: Octane-4-olide Isolated at 24 hours incubation of compound in Pichia stipitis
Kodamaea ohmeri [21] = experiment: Nonan-4-olide Isolated at 24 hours incubation of compound in Pichia ohmeri

CC/C=C/C[C@@H]1CCC(=O)O1
Lactone production (Scheffersomyces stipitis [1]): 12.5
Lactone production (Kodamaea ohmeri [2]): 12.3

CC/C=C/CCCC1CCC(=O)O1 (stereo unspecified)
Lactone production (Kodamaea ohmeri [3]): 8.25
Lactone production (Scheffersomyces stipitis [4]): 11.9
Lactone production (Scheffersomyces stipitis [5]): 3.2

CC/C=C/C=C/[C@@H]1CCC(=O)O1
Lactone production (Scheffersomyces stipitis [6]): 8.6
Lactone production (Scheffersomyces stipitis [7]): 25.09
Lactone production (Kodamaea ohmeri [8]): 1.5
Lactone production (Kodamaea ohmeri [9]): 7.6
Lactone production (Kodamaea ohmeri [10]): 20.5

CCCCCCCC/C=C/CCCC1CCC(=O)O1 (stereo unspecified)
Lactone production (Scheffersomyces stipitis [11]): 11
Lactone production (Kodamaea ohmeri [12]): 4.6
Lactone production (Kodamaea ohmeri [13]): 11.8
Lactone production (Scheffersomyces stipitis [14]): 16.7
Lactone production (Scheffersomyces stipitis [15]): 4
Lactone production (Scheffersomyces stipitis [16]): 2.6
Lactone production (Kodamaea ohmeri [17]): 25.6

CC/C=C/CC[C@@H]1CCC(=O)O1
Lactone production (Kodamaea ohmeri [18]): 1.1
Lactone production (Scheffersomyces stipitis [19]): 0.3
Lactone production (Scheffersomyces stipitis [20]): 4
Lactone production (Kodamaea ohmeri [21]): 5.9
